Literature values, collected in US20070082063A1, “Risk assessment and correction of membrane damage of the upper GI tract” (priority 2005, published 2007).

Tests used:
[1] = animals with reduced membrane arachidonate
[2] = humans or animals with normal membrane arachidonate content

Compound	effect on membrane arachidonate content [1]	effect on serum or tissue arachidonate content [2]
CCCCC/C=C\C/C=C\C/C=C\CCCCC(=O)O [GLA, gamma-linolenic acid]	significantly increase	–
CCCCC/C=C\C/C=C\C/C=C\C/C=C\CCCC(=O)O [ARA, arachidonic acid]	–	little effect
